Patent publication US20090202574A1, “METHODS OF IMMUNE OR HAEMATOLOGICAL ENHANCEMENT, INHIBITING TUMOUR FORMATION OR GROWTH, AND TREATING OR PREVENTING CANCER” (priority 2004, published 2009)

How the values were obtained:
EL-4 target cells = experiment: Anti-tumour CTL and/or NK cell cytolytic activity of splenocytes against EL-4 target cells; details: Example 18; mice fed control diet
Protocol: Splenocytes were harvested 28 days following tumour cell injection, as specified. They were incubated at 37° C. with EL-4 target cells in graded E:T ratios in 96-well round-bottom plates. After a 4-hour incubation, 50 μl of supernatant was collected, and lysis was measured using the Cyto Tox 96 Assay Kit (Promega, Madison, Wis., USA). Background controls for non-specific target and effector cell lysis were included. After background subtraction, percentage of cell lysis was calculated using the formula: 100× (experimental-spontaneous effector-spontaneous target/maximum target-spontaneous target).

EL-4 tumours = experiment: EL-4 tumour growth in mice (s.c. flank tumour model); format: in vivo, C57BL/6 mice; details: for EL-4 tumour response: Example 18, 28 g Fe-Lf per 2.4 Kg diet, drugs i.p. at ~0.4 to 0.5 cm
[1] = tested on: Lewis lung carcinoma (LLC) tumours; experiment: Lewis lung carcinoma tumour growth in mice; format: in vivo, C57BL/6 mice; details: Example 18; 28 g Fe-Lf per 2.4 Kg diet; epirubucin 15 mg/Kg i.p.
Protocol: Tumors were established by s.c. injection of 2×10^5 EL-4 cells into the left flank of mice, and growth determined by measuring two perpendicular diameters. Animals were euthanased when tumors reached more than 1.0 cm in diameter, in accord with Animal Ethics Approval (University of Auckland). All experiments included 5 mice per treatment group, unless otherwise indicated. Paclitaxel (30 mg dissolved in 5 ml of Cremophor® EL and dehydrated alcohol) was diluted in 0.9% NaCl and administered i.p. at 30 mg/Kg. Doxorubucin in water was injected i.p. at 15 mg/Kg. The drugs were injected in a volume of 0.01 to 0.02 ml/g body weight. The expression vector encoding mouse B7-1 was prepared by cesium chloride gradient centrifugation, and diluted to 5 μg/μl in a solution of 5% glucose in 0.01% Triton X-100. It was mixed in a ratio of 1:1 (wt:wt) with DOTAP cationic liposomes (Boehringer Mannheim, Germany). Tumors were injected with 180 μl of DNA (180 μg)/liposome complexes, as described previously (Kanwar, et al., 1999 and Kanwar, et al., 2000).
Mice were fed the control diet, and the same diet supplemented with 28 g of 100% Fe-saturated lactoferrin per 2.4 Kg of diet. EL-4 (2×10^5), Lewis lung carcinoma (LLC, 2×10^5), and B16 melanoma (2×10^5) tumour cells were injected into the left flanks of C57BL/6 mice following two weeks on the Lf diets, or control diet. […]

IL-18 = IL-18 production by cultured intestinal loops; format: cell-based, mice; details: Example 20; 400 and 800 μg/ml; 48 h
Protocol: Cytokine levels in the supernatants of homogenates of the small intestine were determined using a “sandwich” ELISA kit (Endogen, Woburn, Mass.). They were detected within standard curve ranges of 15-375 pg/ml for IL-4, 0-2450 pg/ml for IL-5, 15-1000 pg/ml for TNF-α, 0-3000 pg/ml for IFN-γ, 37-3000 pg/ml for IL-10, 31.3-2000 pg/ml for IL-12, and 31.3-2000 pg/ml for IL-18, respectively. Quantification of nitrite, indicative of NO production, was carried out by the Griess reaction (Sigma, USA). The results are expressed as the mean nitrite concentration (μM)±SD.
100% Fe-saturated Lf, natural Lf (less than 20% iron saturated), and bovine serum albumin control were added at 400 and 800 μg/ml to intestinal loops (2.5 cm segments of the small intestine) prepared from healthy 6 to 7 week-old female mice, which were kept in culture for 48 h. IL-18 levels released by the intestinal loops, and present in the supernatants of homogenates of the small intestine were determined using a “sandwich” ELISA kit as described above.

`COc1cccc2c1C(=O)c1c(O)c3c(c(O)c1C2=O)C[C@@](O)(C(=O)CO)C[C@@H]3O[C@H]1C[C@H](N)[C@@H](O)[C@H](C)O1` [Epirubucin, reference compound] was tested, and the “effect of drug alone on anti-tumour cytolytic activity” value (from here on “effect of drug alone”) (EL-4 target cells) was “negligible effect”, the EL-4 tumour response (EL-4 tumours) was “slight delay in the growth” and the LLC tumour response [1] was “slight delay in the growth”.
In the case of `O=P1(N(CCCl)CCCl)NCCCO1` (stereo not drawn) [cyclophosphamide, reference compound], the “effect of drug alone” value (EL-4 target cells) is reported as “small increases” and the EL-4 tumour response (EL-4 tumours) is reported as “little effect”.
`COc1cccc2c1C(=O)c1c(O)c3c(c(O)c1C2=O)C[C@@](O)(C(=O)CO)C[C@@H]3O[C@H]1C[C@H](N)[C@H](O)[C@H](C)O1` [doxorubicin, reference compound] was tested, and the tumour response (EL-4 tumours; Example 6, doxorubicin 15 mg/Kg and/or paclitaxel 30 mg/Kg single dose i.p. at ~0.55 cm) was “regressed to half their size within one week of administration of doxorubicin, but then began to grow again”.
For `O=c1[nH]cc(F)c(=O)[nH]1` [fluorouracil, reference compound], the “effect of drug alone” value (EL-4 target cells) was “only slightly enhanced”.
With `CN(Cc1cnc2nc(N)nc(N)c2n1)c1ccc(C(=O)N[C@@H](CCC(=O)O)C(=O)O)cc1` [methotrexate, reference compound] the “effect of drug alone” value (EL-4 target cells) was “small increases” and the EL-4 tumour response (EL-4 tumours) was “no discernible effect”.
`CC(=O)O[C@H]1C(=O)[C@@]2(C)[C@H]([C@H](OC(=O)c3ccccc3)[C@]3(O)C[C@H](OC(=O)[C@H](O)[C@@H](NC(=O)c4ccccc4)c4ccccc4)C(C)=C1C3(C)C)[C@]1(OC(C)=O)CO[C@@H]1C[C@@H]2O` [paclitaxel, reference compound] was tested, and the tumour response (EL-4 tumours; Example 5, paclitaxel 30 mg/Kg i.p. at 0.5 cm tumour diameter) was “grew completely unchecked” and the “tumour response to paclitaxel” value (EL-4 tumours; Example 15, paclitaxel 30 mg/Kg i.p. at ~0.6 cm, 20 g Lf per 2.4 Kg diet) was “completely resistant”.
With “bovine serum albumin: control protein in intestinal loop test [reference compound]” the “effect on the levels of IL-18 already detectable in the intestine” value (IL-18) was “negligible effect”.
